Test results taken from US20240228535A1 (priority 2022, published 2024).

Each compound was assayed against SARS2 coronavirus 3CL protease (Severe acute respiratory syndrome coronavirus 2, UniProt P0DTD1) (assay: biochemical). Settings: 5 nM enzyme, 30 min pre-incubation with compound, 15 μM peptide substrate, 4 h at room temperature; read-out: FRET Potency (nM); IC50 values in the SARS2 3CLPro FRET assay.

| Structure (SMILES) | IC50 |
| --- | --- |
| CNC(=O)C(=O)[C@H](C[C@@H]1C[C@@H](C)NC1=O)NC(=O)c1cc(C(F)(F)F)ccc1NC(=O)OC1CC1 [Example 169, cyclopropyl N-[2-[(1S)-3-(methylamino)-1-[[(3S,5R)-5-methyl-2-oxo-pyrrolidin-3-yl]methyl]-2,3-dioxo-propyl]carbamoyl]-4-(trifluoromethyl)phenyl] carbamate] | 75.3 nM |
| CCOC(=O)Nc1ccc(Cl)cc1C(=O)N[C@@H](C[C@@H]1C[C@@H](C)NC1=O)C(=O)C(=O)NC [Example 129, ethyl N-[4-chloro-2-[[(1S)-3-(methylamino)-1-[[(3S,5R)-5-methyl-2-oxo-pyrrolidin-3-yl]methyl]-2,3-dioxo-propyl]carbamoyl]phenyl] carbamate] | 5.9 nM |
| O=C(Nc1ccc(Cl)cc1C(=O)N[C@@H](C[C@@H]1CCNC1=O)C(=O)C(=O)NC1CC1)OCC1CC1 [Example 162, cyclopropylmethyl N-[4-chloro-2-[[(1S)-3-(cyclopropylamino)-2,3-dioxo-1-[[(3S)-2-oxopyrrolidin-3-yl]methyl]propyl]carbamoyl]phenyl]carbamate] | 7.5 nM |
| C[C@@H]1C[C@@H](C[C@H](NC(=O)c2cc(F)ccc2NC(=O)c2cccc(C(F)(F)F)c2)C(=O)C(=O)NC2CC2)C(=O)N1 [Example 78, N-[(1S)-3-(cyclopropylamino)-1-[[(3S,5R)-5-methyl-2-oxo-pyrrolidin-3-yl]methyl]-2,3-dioxo-propyl]-5-fluoro-2-[[3-(trifluoromethyl)benzoyl]amino]benzamide] | 4.6 nM |
| COC(=O)Nc1ccc(Cl)cc1C(=O)N[C@@H](C[C@@H]1CCNC1=O)C(=O)C(=O)NC1CC1 [Example 123] | 7.3 nM |
| C[C@@H]1C[C@@H](C[C@H](NC(=O)c2cc(C(F)F)ccc2NC(=O)c2ccnc(C(F)(F)F)c2)C(=O)C(=O)NC2CC2)C(=O)N1 [Example 232, N-[2-[[(1S)-3-(cyclopropylamino)-1-[[(3S,5R)-5-methyl-2-oxo-pyrrolidin-3-yl]methyl]-2,3-dioxo-propyl]carbamoyl]-4-(difluoromethyl)phenyl]-2-(trifluoromethyl)pyridine-4-carboxamide] | 10.4 nM |
| C[C@@H]1C[C@@H](C[C@H](NC(=O)c2cc(C(F)(F)F)ccc2NC(=O)c2cccc(C(F)(F)F)c2)C(=O)C(=O)NC2CC2)C(=O)N1 [Example 64, N-[(1S)-3-(cyclopropylamino)-1-[[(3S,5R)-5-methyl-2-oxo-pyrrolidin-3-yl]methyl]-2,3-dioxo-propyl]-5-(trifluoromethyl)-2-[[3-(trifluoromethyl)benzoyl]amino]benzamide] | 7.3 nM |
| O=C(Nc1cc(F)c(F)cc1C(=O)N[C@@H](C[C@@H]1CCNC1=O)C(=O)C(=O)NC1CC1)OC1CC1 [Example 150] | 17.9 nM |
| C[C@@H]1C[C@@H](C[C@H](NC(=O)c2cc(Cl)ccc2NC(=O)C2(C(F)(F)F)CC2)C(=O)C(=O)NC2CC2)C(=O)N1 [Example 1, 5-chloro-N—((S)-4-(cyclopropylamino)-1-((3S,5R)-5-methyl-2-oxopyrrolidin-3-yl)-3,4 dioxobutan-2-yl)-2-(1-(trifluoromethyl)cyclopropane-1-carboxamido)benzamide] | 7.5 nM |
| C[C@@H]1C[C@@H](C[C@H](NC(=O)c2cc(Cl)ccc2NC(=O)C2(C(F)(F)F)CCC2)C(=O)C(=O)NC2CC2)C(=O)N1 [Example 35, 5-chloro-N-[(1S)-3-(cyclopropylamino)-1-[[(3S,5R)-5-methyl-2-oxo-pyrrolidin-3-yl]methyl]-2,3-dioxo-propyl]-2-[[1-(trifluoromethyl)cyclobutanecarbonyl]amino]benzamide] | 11.1 nM |
| C[C@@H]1C[C@@H](C[C@H](NC(=O)c2cc(Cl)ccc2NC(=O)C2CC2C(F)(F)F)C(=O)C(=O)NC2CC2)C(=O)N1 (stereo partly drawn) [Example 97, 5-chloro-N-[(1S)-3-(cyclopropylamino)-1-[[(3S,5R)-5-methyl-2-oxo-pyrrolidin-3-yl]methyl]-2,3-dioxo-propyl]-2-[[2-(trifluoromethyl)cyclopropane-carbonyl]amino]benzamide] | 7.7 nM |
| CNC(=O)C(=O)[C@H](C[C@@H]1C[C@@H](C)NC1=O)NC(=O)c1cc(Cl)ccc1NC(=O)OCC1CCCC(F)(F)C1 (stereo partly drawn) [Example 219, (3,3-difluorocyclohexyl)methyl N-[4-chloro-2-[[(1S)-3-(methylamino)-1-[(3S,5R)-5-methyl-2-oxo-pyrrolidin-3-yl]methyl]-2,3-dioxo-propyl]carbamoyl]phenyl] carbamate] | 7.1 nM |
| C[C@@H]1C[C@@H](C[C@H](NC(=O)c2cc(F)cnc2NC(=O)c2cccc(C(F)(F)F)c2)C(=O)C(=O)NC2CC2)C(=O)N1 [Example 67, N-[(1S)-3-(cyclopropylamino)-1-[[(3S,5R)-5-methyl-2-oxo-pyrrolidin-3-yl]methyl]-2,3-dioxo-propyl]-5-fluoro-2-[[3-(trifluoromethyl)benzoyl]amino]pyridine-3-carboxamide] | 7 nM |
| C[C@@H]1C[C@@H](C[C@H](NC(=O)c2cc(Cl)ccc2NC(=O)C2CC23CC3)C(=O)C(=O)NC2CC2)C(=O)N1 (stereo partly drawn) [Example 83, N-[4-chloro-2-[[(1S)-3-(cyclopropylamino)-1-[[(3S,5R)-5-methyl-2-oxo-pyrrolidin-3-yl]methyl]-2,3-dioxo-propyl]carbamoyl]phenyl] spiro[2.2]pentane-2-carboxamide] | 10.5 nM |
| C[C@@H]1C[C@@H](C[C@H](NC(=O)c2cc(Cl)ccc2NC(=O)CCC(F)(F)F)C(=O)C(=O)NCc2ccccc2)C(=O)N1 [Example 115, N—((S)-4-(benzylamino)-1-((3S,5R)-5-methyl-2-oxopyrrolidin-3-yl)-3,4-dioxobutan-2-yl)-5-chloro-2-(4,4,4-trifluorobutanamido)benzamide] | 11.5 nM |
| C[C@@H]1C[C@@H](C[C@H](NC(=O)c2cc(Cl)c(F)cc2NC(=O)c2ccnc(C(F)(F)F)c2)C(=O)C(=O)NC2CC2)C(=O)N1 [Example 87] | 6.6 nM |
| C[C@@H]1C[C@@H](C[C@H](NC(=O)c2cc(Cl)c(F)cc2NC(=O)C2(C(F)(F)F)CC2)C(=O)C(=O)NC2CC2)C(=O)N1 [Example 33, 5-chloro-N-[(1S)-3-(cyclopropylamino)-1-[[(3S,5R)-5-methyl-2-oxo-pyrrolidin-3-yl]methyl]-2,3-dioxo-propyl]-4-fluoro-2-[[1-(trifluoromethyl)cyclopropane-carbonyl]amino]benzamide] | 12.2 nM |
| CNC(=O)C(=O)[C@H](C[C@@H]1C[C@@H](C)NC1=O)NC(=O)c1cc(Cl)ccc1NC(=O)c1nccc(C(F)(F)F)n1 [Example 216] | 9.6 nM |
| CNC(=O)C(=O)[C@H](C[C@@H]1CCNC1=O)NC(=O)c1cc(Cl)ccc1NC(=O)C1(C(F)(F)F)CC1 [Example 81, 5-chloro-N-[(1S)-3-(methylamino)-2,3-dioxo-1-[[(3S)-2-oxopyrrolidin-3-yl]methyl]propyl]-2-[[1-(trifluoromethyl)cyclopropane-carbonyl]amino]benzamide] | 15.9 nM |
| CNC(=O)C(=O)[C@H](C[C@@H]1C[C@@H](C)NC1=O)NC(=O)c1cc(Cl)ccc1NC(=O)OC(C)C [Example 31, isopropyl N-[4-chloro-2-[[(1S)-3-(methylamino)-1-[[(3S,5R)-5-methyl-2-oxo-pyrrolidin-3-yl]methyl]-2,3-dioxo-propyl]carbamoyl]phenyl] carbamate] | 12.4 nM |
| C[C@@H]1C[C@@H](C[C@H](NC(=O)c2cc(Cl)ccc2NC(=O)[C@@H]2CNC(=O)O2)C(=O)C(=O)NC2CC2)C(=O)N1 [Example 193, (5S)-N-[4-chloro-2-[[(1S)-3-(cyclopropylamino)-1-[[(3S,5R)-5-methyl-2-oxo-pyrrolidin-3-yl]methyl]-2,3-dioxo-propyl]carbamoyl]phenyl]-2-oxo-oxazolidine-5-carboxamide] | 5.2 nM |
| CNC(=O)C(=O)[C@H](C[C@@H]1C[C@@H](C)NC1=O)NC(=O)c1cc(Cl)ccc1NC(=O)C(C)c1cscn1 (stereo partly drawn) [Example 195, 5-chloro-N-[(1S)-3-(methylamino)-1-[[(3S,5R)-5-methyl-2-oxo-pyrrolidin-3-yl]methyl]-2,3-dioxo-propyl]-2-(2-thiazol-4-ylpropanoylamino)benzamide] | 3.1 nM |
| CNC(=O)C(=O)[C@H](C[C@@H]1CCNC1=O)NC(=O)c1cc(Cl)ccc1NC(=O)OC1CC1(F)F (stereo partly drawn) [Example 157, (2,2-difluorocyclopropyl) N-[4-chloro-2-[[(1S)-3-(methylamino)-2,3-dioxo-1-[[(3S)-2-oxopyrrolidin-3-yl]methyl]propyl]carbamoyl]phenyl]carbamate] | 8.9 nM |
| CNC(=O)C(=O)[C@H](C[C@@H]1C[C@@H](C)NC1=O)NC(=O)c1cc(Cl)ccc1NC(=O)OCC1CC1(F)F (stereo partly drawn) [Example 187, (2,2-difluorocyclopropyl)methyl N-[4-chloro-2-[(1S)-3-(methylamino)-1-[[(3S,5R)-5-methyl-2-oxo-pyrrolidin-3-yl]methyl]-2,3-dioxo-propyl]carbamoyl]phenyl] carbamate] | 2.5 nM |
| C[C@@H]1C[C@@H](C[C@H](NC(=O)c2cc(Cl)ccc2NC(=O)c2cccc(C(F)(F)F)n2)C(=O)C(=O)NC2CC2)C(=O)N1 [Example 40] | 10 nM |
| CNC(=O)C(=O)[C@H](C[C@@H]1C[C@@H](C)NC1=O)NC(=O)c1cc(Cl)ccc1NC(=O)OCC1CC1(F)F (stereo partly drawn) [Example 186, (2,2-difluorocyclopropyl)methyl N-[4-chloro-2-[[(1S)-3-(methylamino)-1-[[(3S,5R)-5-methyl-2-oxo-pyrrolidin-3-yl]methyl]-2,3-dioxo-propyl]carbamoyl]phenyl] carbamate] | 2.5 nM |
| CNC(=O)C(=O)[C@H](C[C@@H]1C[C@@H](C)NC1=O)NC(=O)c1cc(C(F)F)ccc1NC(=O)OC [Example 130, methyl N-[4-(difluoromethyl)-2-[[(1S)-3-(methylamino)-1-[[(3S,5R)-5-methyl-2-oxo-pyrrolidin-3-yl]methyl]-2,3-dioxo-propyl]carbamoyl]phenyl] carbamate] | 20.7 nM |
| CNC(=O)C(=O)[C@H](C[C@@H]1CCNC1=O)NC(=O)c1cc(F)c(F)cc1NC(=O)OC1CC1 [Example 127, cyclopropyl N-[4,5-difluoro-2-[[(1S)-3-(methylamino)-2,3-dioxo-1-[[(3S)-2-oxopyrrolidin-3-yl]methyl]propyl]carbamoyl]phenyl]carbamate] | 7.9 nM |
